Key:
[1] = (§1) The drug is tested on Z-030 corresponding to mouse gut metagenome with ENA study accession number: PRJEB37062 and ENA sample accession number: ERS12561829 for biotransformation under anaerobic condition. The drug concentrations were measured over 9 timepoints collected between 0 and 24 hours of incubation by liquid-chromatography-coupled mass spectrometry (LC–MS); conditions: 2 µM
[2] = as §1, with “Z-025” for “Z-030”, “rabbit” for “mouse”, “ERS12561824” for “ERS12561829”; conditions: 2 µM
[3] = as §1, with “Z-020” for “Z-030”, “rabbit” for “mouse”, “ERS12561819” for “ERS12561829”; conditions: 2 µM
[4] = as §1, with “Z-005” for “Z-030”, “to” for “to mouse gut”, “ERS12561805” for “ERS12561829”; conditions: 2 µM
[5] = as §1, with “Z-004” for “Z-030”, “to” for “to mouse gut”, “ERS12561804” for “ERS12561829”; conditions: 2 µM
[6] = as §1, with “WLS-350” for “Z-030”, “human” for “mouse”, “ERS12561789” for “ERS12561829”; conditions: 2 µM
[7] = as §1, with “WLS-082” for “Z-030”, “human” for “mouse”, “ERS12561751” for “ERS12561829”; conditions: 2 µM
[8] = as §1, with “WLS-073” for “Z-030”, “human” for “mouse”, “ERS12561749” for “ERS12561829”; conditions: 2 µM
[9] = as §1, with “WLS-006” for “Z-030”, “human” for “mouse”, “ERS12561741” for “ERS12561829”; conditions: 2 µM
[10] = human gut metagenome, 24 h, 2 µM
[11] = human gut metagenome, 24 h, 2 µM; remark: listed apart in the source
[12] = human gut metagenome, 24 h, 2 µM; remark: listed apart in the source
[13] = human gut metagenome, 24 h, 2 µM; remark: listed apart in the source
[14] = human gut metagenome, 24 h, 2 µM; remark: listed apart in the source
[15] = human gut metagenome, 24 h, 2 µM; remark: listed apart in the source
[16] = human gut metagenome, 24 h, 2 µM; remark: listed apart in the source
[17] = human gut metagenome, 24 h, 2 µM; remark: listed apart in the source
[18] = human gut metagenome, 24 h, 2 µM; remark: listed apart in the source
[19] = human gut metagenome, 24 h, 2 µM; remark: listed apart in the source
[20] = human gut metagenome, 24 h, 2 µM; remark: listed apart in the source
Note: call rule not given here.

Row | Compound | Bacterial Biotransformation [1] | Bacterial Biotransformation [2] | Bacterial Biotransformation [3] | Bacterial Biotransformation [4] | Bacterial Biotransformation [5] | Bacterial Biotransformation [6] | Bacterial Biotransformation [7] | Bacterial Biotransformation [8] | Bacterial Biotransformation [9] | Bacterial Biotransformation [10] | Bacterial Biotransformation [11] | Bacterial Biotransformation [12] | Bacterial Biotransformation [13] | Bacterial Biotransformation [14] | Bacterial Biotransformation [15] | Bacterial Biotransformation [16] | Bacterial Biotransformation [17] | Bacterial Biotransformation [18] | Bacterial Biotransformation [19] | Bacterial Biotransformation [20]
1 | CC(=O)OCC(=O)[C@@]1(O)[C@@H](C)C[C@H]2[C@@H]3CCC4=CC(=O)C=C[C@]4(C)[C@@]3(F)[C@@H](O)C[C@@]21C [BETAMETHASONE ACETATE] | Compound NOT metabolized | Compound metabolized | Compound metabolized | Compound metabolized | Compound NOT metabolized | Compound metabolized | Compound metabolized | Compound NOT metabolized | Compound metabolized | Compound metabolized | Compound metabolized | Compound metabolized | Compound metabolized | Compound NOT metabolized | Compound metabolized | Compound metabolized | Compound metabolized | Compound metabolized | Compound NOT metabolized | Compound metabolized
2 | CC(C)NCC(O)COc1ccc(CCOCC2CC2)cc1 (stereo not given) [BETAXOLOL] | Compound NOT metabolized | Compound metabolized | Compound NOT metabolized | Compound NOT metabolized | Compound metabolized | Compound NOT metabolized | Compound NOT metabolized | Compound NOT metabolized | Compound NOT metabolized | Compound NOT metabolized | Compound NOT metabolized | Compound NOT metabolized | Compound NOT metabolized | Compound metabolized | Compound NOT metabolized | Compound NOT metabolized | Compound NOT metabolized | Compound NOT metabolized | Compound NOT metabolized | Compound metabolized
3 | CC(C)(Oc1ccc(CCNC(=O)c2ccc(Cl)cc2)cc1)C(=O)O [BEZAFIBRATE] | Compound NOT metabolized | Compound NOT metabolized | Compound NOT metabolized | Compound NOT metabolized | Compound NOT metabolized | Compound metabolized | Compound metabolized | Compound metabolized | Compound metabolized | Compound metabolized | Compound metabolized | Compound NOT metabolized | Compound metabolized | Compound metabolized | Compound NOT metabolized | Compound metabolized | Compound NOT metabolized | Compound metabolized | Compound NOT metabolized | Compound metabolized
4 | CCN(CC)CCOCCOC(=O)C1(c2ccccc2)CCCC1.O=C(O)CC(O)(CC(=O)O)C(=O)O [CARBETAPENTANE CITRATE] | Compound NOT metabolized | Compound NOT metabolized | Compound metabolized | Compound metabolized | Compound metabolized | Compound NOT metabolized | Compound metabolized | Compound metabolized | Compound metabolized | Compound metabolized | Compound metabolized | Compound NOT metabolized | Compound metabolized | Compound metabolized | Compound NOT metabolized | Compound metabolized | Compound metabolized | Compound metabolized | Compound NOT metabolized | Compound metabolized
5 | O=C(O)COCCN1CCN(C(c2ccccc2)c2ccc(Cl)cc2)CC1 (stereo not given) [CETIRIZINE] | Compound NOT metabolized | Compound NOT metabolized | Compound NOT metabolized | Compound metabolized | Compound metabolized | Compound metabolized | Compound metabolized | Compound metabolized | Compound metabolized | Compound metabolized | Compound metabolized | Compound metabolized | Compound metabolized | Compound metabolized | Compound metabolized | Compound metabolized | Compound metabolized | Compound metabolized | Compound metabolized | Compound metabolized
6 | CN/C(=N/CCSCc1nc[nH]c1C)NC#N [CIMETIDINE] | Compound NOT metabolized | Compound NOT metabolized | Compound NOT metabolized | Compound metabolized | Compound NOT metabolized | Compound NOT metabolized | Compound metabolized | Compound NOT metabolized | Compound metabolized | Compound metabolized | Compound metabolized | Compound NOT metabolized | Compound metabolized | Compound NOT metabolized | Compound NOT metabolized | Compound metabolized | Compound NOT metabolized | Compound metabolized | Compound NOT metabolized | Compound metabolized
7 | Br.CN(C)CCCC1(c2ccc(F)cc2)OCc2cc(C#N)ccc21 (stereo not given) [CITALOPRAM HYDROBROMIDE] | Compound NOT metabolized | Compound NOT metabolized | Compound NOT metabolized | Compound NOT metabolized | Compound NOT metabolized | Compound NOT metabolized | Compound NOT metabolized | Compound NOT metabolized | Compound metabolized | Compound NOT metabolized | Compound metabolized | Compound NOT metabolized | Compound metabolized | Compound metabolized | Compound NOT metabolized | Compound metabolized | Compound metabolized | Compound NOT metabolized | Compound NOT metabolized | Compound metabolized
8 | CN(C)CCC=C1c2ccccc2C=Cc2ccccc21 [CYCLOBENZAPRINE] | Compound NOT metabolized | Compound metabolized | Compound NOT metabolized | Compound NOT metabolized | Compound metabolized | Compound metabolized | Compound metabolized | Compound metabolized | Compound metabolized | Compound metabolized | Compound metabolized | Compound metabolized | Compound metabolized | Compound NOT metabolized | Compound metabolized | Compound metabolized | Compound NOT metabolized | Compound metabolized | Compound NOT metabolized | Compound NOT metabolized
